Data as given in patent publication US20030153590A1, “Method of treating alcoholism or alcohol abuse” (OY CONTRAL PHARMA LTD, priority 2001, published 2003).
Structures can show the parent of a compound that is named as a salt. Where two headings read alike, the source gives them in different places.

Experiments:
[1] = Solubility of nalmefene HCl in water as a function of pH; type: physicochemical; details: aqueous buffer, read-out: Matematically determined solubility in water
Description: Cs is the water solubility of nalmefene.
Because the water solubility of nalmefene was not available in the literature for all the pH values used in the permeation study, the solubilities at pH values 6.5, 7.0, 7.5, and 8.0 were determined matematically from a diagram that described the logarithm of the solubility listed on Table 5 as a function of pH (Cs,pH).

[2] = cited from earlier work

Question: For C=C1CC[C@@]2(O)[C@H]3Cc4ccc(O)c5c4[C@@]2(CCN3CC2CC2)[C@H]1O5 [Nalmefene HCl], which solubility ([1]; pH 6.5, from diagram of log solubility of Table 5 vs pH) is on record?
Answer: 112 mg/mL

Question: And the solubility ([1]; pH 7.0, from diagram of log solubility of Table 5 vs pH)?
Answer: 88.6 mg/mL

Question: What about the solubility ([1]; pH 7.5, from diagram of log solubility of Table 5 vs pH) of the same compound?
Answer: 31.9 mg/mL

Question: And the solubility ([1]; pH 8.0, from diagram of log solubility of Table 5 vs pH)?
Answer: 0.44 mg/mL

Question: And the Solubility in water ([2]; pH 2.25)?
Answer: 128 mg/mL

Question: What about the Solubility in water ([2]; pH 5.71) of the same compound?
Answer: 131 mg/mL

Question: And the Solubility in water ([2]; pH 6.115)?
Answer: 133 mg/mL

Question: And the Solubility in water ([2]; pH 6.25)?
Answer: 124 mg/mL

Question: And the Solubility in water ([2]; pH 7.85)?
Answer: 1.09 mg/mL

Question: And the Solubility in water ([2]; pH 8.5)?
Answer: 0.180 mg/mL

Question: And the Solubility in water ([2]; pH 9.15)?
Answer: 0.090 mg/mL

Question: And the Solubility in water ([2]; pH 10.4)?
Answer: 0.230 mg/mL
